These results are taken from patent US20240408169A1 (priority 2023, published 2024).

One experiment has as its target T1, CyclinE1/CDK2 (Homo sapiens, UniProt P24864).
T1 construct: purchased Eurofins, discovery 14-475
Nature of the experiment: Fluorescence Polarization (FP) competitive binding assay, Cyclin E1/Cdk2.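 Note: readings taken after two-hour equilibration at room temperature in HEPES buffer with NaCl, DTT, NP-40 and BSA, IC50 fitted from eight-concentration serial dilution series.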 Particulars: 10 nM Cyclin E1/Cdk2, 2 nM FAM probe; average of 2-3 independent experiments; read-out: Cyclin E FP IC50.

A further experiment addresses T2, CyclinB1/CDK1 (Homo sapiens, UniProt P14635).
T2 construct: purchased Eurofins, discovery 14-450
The experiment can be described thus: Fluorescence Polarization (FP) competitive binding assay, Cyclin B1/Cdk1.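 Note: fluorescence polarization read after equilibration at room temperature, with IC50 taken from serially diluted dose-response curves.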 Particulars: 10 nM Cyclin B1/Cdk1, 2 nM FAM probe; average of 2-3 independent experiments; read-out: Cyclin B FP IC50. Background: Fluorescence polarisation rises when a labelled molecule tumbles more slowly, as on binding a larger partner.

In the next experiment the test system is NCI-H1048 cells. The experiment can be described thus: MTT proliferation assay, NCI-H1048.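 Note: Dose-response in 96-well plates over 8 or 10 concentration points, with exposure spanning 3-4 cell doublings.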 Particulars: 5 days compound exposure, 1:3 serial dilution starting at 10 μM. Type of experiment: cell-based. In general terms: Tetrazolium assays rely on reduction of a dye to a coloured formazan, in cell work by metabolically active cells.
The next experiment addresses T3, CyclinA2/CDK2 (Homo sapiens, UniProt P20248).
T3 construct: purchased CRELUX Protein Services
Nature of the experiment: Fluorescence Polarization (FP) competitive binding assay, Cyclin A2/Cdk2.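 Note: plates equilibrated two hours at room temperature before polarization reading, IC50 fitted from eight-concentration compound titration curves.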 The settings on record: 8 nM Cyclin A2/Cdk2, 2 nM FAM probe; average of 2-3 independent experiments; read-out: Cyclin A FP IC50.

A further experiment has as its system OVCAR3 cells. The experiment can be described thus: MTT proliferation assay, OVCAR3.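 Note: compound given as an 8- or 10-point series, one day after plating, with exposure covering roughly 3-4 cell doublings.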 Type of experiment: cell-based. Particulars: 5 days compound exposure, 1:3 serial dilution starting at 10 μM.

*1 amine or outer side, *2 acyl side, *3 side chain or, on linkers, in order; H or OH if unused. Where a SMILES comes first, the peptide text is derived from it. Bridges are numbered along the chain shown (N, C = ends). [ ]: non-standard residue; d: D form. The star is where a group is joined. NMePhe(2-(4-MorPh),5-Cl) = CN[C@@H](Cc1cc(Cl)ccc1-c1ccc(N2CCOCC2)cc1)C(=O)O; X165 = CN([C@@H](Cc1cc(Cl)ccc1-c1ccc(N2CCOCC2)c(Cl)c1)C(=O)[*:2])[*:1]; X149 = CN([C@@H](Cc1cc(Cl)ccc1-c1ccnc(N2CCOCC2)c1F)C(=O)[*:2])[*:1]; X175 = Cc1cc(-c2ccc(Cl)cc2C[C@@H](C(=O)[*:2])N(C)[*:1])ccc1N1CCOCC1; X136 = CN1CCOc2cc(-c3ccc(Cl)cc3C[C@@H](C(=O)[*:2])N(C)[*:1])ccc21; X87 = CN([C@@H](Cc1cc(F)ccc1-c1ccc(N2CCOCC2)cc1)C(=O)[*:2])[*:1]; NMehhhLys(Me) = CN([C@@H](CCCCCCCN(C)[*:3])C(=O)[*:2])[*:1]; X22 = CN([C@@H](Cc1cc(Cl)ccc1-c1cnn(C)c1)C(=O)[*:2])[*:1]; NMe(hhhLys) = CN([C@@H](CCCCCCCN[*:3])C(=O)[*:2])[*:1]; cBuCO(3,3-F2-1-CF3) = O=C(C1(C(F)(F)F)CC(F)(F)C1)*; Pro(trans-4-F) = O=C(O)[C@@H]1C[C@@H](F)CN1; Pro(4,4-F2) = O=C(O)[C@@H]1CC(F)(F)CN1; X201 = O=C(C1(C(F)F)CC(F)(F)C1)*; Gly(cPr) = N[C@H](C(=O)O)C1CC1

Broadly, the IC50 is the midpoint of a concentration-inhibition curve. The GI50 is the concentration that inhibits growth by half. A higher GI50 goes with less potent growth inhibition. In the case of `CC(C)C[C@@H]1NC(=O)[C@@H](N(C)C(=O)[C@@H](NC(=O)[C@@H]2C[C@@H](F)CN2C(=O)C2(C(F)(F)F)CC(F)(F)C2)C2CC2)CCCCCCCNC(=O)[C@H](Cc2cc(Cl)ccc2-c2ccc(N3CCOCC3)cc2)N(C)C1=O` [Example 333] ({cBuCO(3,3-F2-1-CF3)}-[Pro(trans-4-F)][Gly(cPr)][NMe(hhhLys)]L[NMePhe(2-(4-MorPh),5-Cl)]; lactam 3-C), the figures for the IC50 at CyclinE1/CDK2, at CyclinB1/CDK1 and on CyclinA2/CDK2 were 1150 nM, 20 nM and 20 nM, respectively. The GI50 with NCI-H1048 cells and with OVCAR3 cells was 10 nM throughout.
With `CC(C)C[C@@H]1NC(=O)[C@@H](N(C)C(=O)[C@@H](NC(=O)[C@@H]2C[C@@H](F)CN2C(=O)C2(C(F)(F)F)CC(F)(F)C2)C2CC2)CCCCCCCNC(=O)[C@H](Cc2cc(F)ccc2-c2ccc(N3CCOCC3)cc2)N(C)C1=O` [Example 334] ({cBuCO(3,3-F2-1-CF3)}-[Pro(trans-4-F)][Gly(cPr)][NMe(hhhLys)]L[X87]; lactam 3-C), the values for the IC50 at CyclinE1/CDK2, at CyclinB1/CDK1 and on CyclinA2/CDK2 were 190 nM, 20 nM and 20 nM, respectively. The GI50 with NCI-H1048 cells and in the experiment with OVCAR3 cells was 10 nM in each case.
As for `CC(C)C[C@@H]1NC(=O)[C@@H](N(C)C(=O)[C@@H](NC(=O)[C@@H]2C[C@@H](F)CN2C(=O)C2(C(F)(F)F)CC(F)(F)C2)C2CC2)CCCCCCCN(C)C(=O)[C@H](Cc2cc(Cl)ccc2-c2ccc3c(c2)OCCN3C)N(C)C1=O` [Example 342] ({cBuCO(3,3-F2-1-CF3)}-[Pro(trans-4-F)][Gly(cPr)][NMehhhLys(Me)]L[X136]; lactam 3-C), the IC50 on CyclinE1/CDK2 was 590 nM; on CyclinB1/CDK1, 20 nM; on CyclinA2/CDK2, 20 nM. Moreover, the GI50 with NCI-H1048 cells and in the experiment with OVCAR3 cells was 10 nM throughout.
As to `CC(C)C[C@@H]1NC(=O)[C@@H](N(C)C(=O)[C@@H](NC(=O)[C@@H]2CC(F)(F)CN2C(=O)C2(C(F)(F)F)CC(F)(F)C2)C2CC2)CCCCCCCN(C)C(=O)[C@H](Cc2cc(Cl)ccc2-c2cnn(C)c2)N(C)C1=O` [Example 343] ({cBuCO(3,3-F2-1-CF3)}-[Pro(4,4-F2)][Gly(cPr)][NMehhhLys(Me)]L[X22]; lactam 3-C), the IC50 is 670 nM on CyclinE1/CDK2, 20 nM on CyclinB1/CDK1 and 20 nM on CyclinA2/CDK2. Also, the GI50 in the experiment on NCI-H1048 cells and in the experiment with OVCAR3 cells was 10 nM in each case.
Consider `Cc1cc(-c2ccc(Cl)cc2C[C@H]2C(=O)N(C)CCCCCCC[C@H](N(C)C(=O)[C@@H](NC(=O)[C@@H]3C[C@@H](F)CN3C(=O)C3(C(F)(F)F)CC(F)(F)C3)C3CC3)C(=O)N[C@@H](CC(C)C)C(=O)N2C)ccc1N1CCOCC1` [Example 344] ({cBuCO(3,3-F2-1-CF3)}-[Pro(trans-4-F)][Gly(cPr)][NMehhhLys(Me)]L[X175]; lactam 3-C), for which the IC50 on CyclinE1/CDK2 amounted to 1270 nM; at CyclinB1/CDK1, 20 nM; on CyclinA2/CDK2, 20 nM. Also, the GI50 came to 10 nM with NCI-H1048 cells and 20 nM in the experiment with OVCAR3 cells.
Take `CC(C)C[C@@H]1NC(=O)[C@@H](N(C)C(=O)[C@@H](NC(=O)[C@@H]2C[C@@H](F)CN2C(=O)C2(C(F)(F)F)CC(F)(F)C2)C2CC2)CCCCCCCN(C)C(=O)[C@H](Cc2cc(Cl)ccc2-c2ccc(N3CCOCC3)c(Cl)c2)N(C)C1=O` [Example 345] ({cBuCO(3,3-F2-1-CF3)}-[Pro(trans-4-F)][Gly(cPr)][NMehhhLys(Me)]L[X165]; lactam 3-C): the IC50 was 3050 nM at CyclinE1/CDK2, 20 nM at CyclinB1/CDK1 and 30 nM on CyclinA2/CDK2. In addition, the values for the GI50 in the experiment on NCI-H1048 cells and with OVCAR3 cells were 20 nM and 40 nM, respectively.
Turning to `CC(C)C[C@@H]1NC(=O)[C@@H](N(C)C(=O)[C@@H](NC(=O)[C@@H]2C[C@@H](F)CN2C(=O)C2(C(F)(F)F)CC(F)(F)C2)C2CC2)CCCCCCCN(C)C(=O)[C@H](Cc2cc(Cl)ccc2-c2ccnc(N3CCOCC3)c2F)N(C)C1=O` [Example 349] ({cBuCO(3,3-F2-1-CF3)}-[Pro(trans-4-F)][Gly(cPr)][NMehhhLys(Me)]L[X149]; lactam 3-C), the IC50 is 230 nM on CyclinE1/CDK2, 20 nM at CyclinB1/CDK1 and 20 nM at CyclinA2/CDK2. Moreover, the GI50 in the experiment with NCI-H1048 cells and in the experiment on OVCAR3 cells was 10 nM in each case.
For the compound `CC(C)C[C@@H]1NC(=O)[C@@H](N(C)C(=O)[C@@H](NC(=O)[C@@H]2C[C@@H](F)CN2C(=O)C2(C(F)F)CC(F)(F)C2)C2CC2)CCCCCCCN(C)C(=O)[C@H](Cc2cc(Cl)ccc2-c2ccc(N3CCOCC3)cc2)N(C)C1=O` [Example 350] (X201-[Pro(trans-4-F)][Gly(cPr)][NMehhhLys(Me)]L[NMePhe(2-(4-MorPh),5-Cl)]; lactam 3-C), the results for the IC50 on CyclinE1/CDK2, at CyclinB1/CDK1 and at CyclinA2/CDK2 were 880 nM, 20 nM and 20 nM, respectively. The GI50 in the experiment with NCI-H1048 cells and with OVCAR3 cells was 10 nM each time.
